Assay results published in US8829011B2 (Janssen Pharmaceutica NV, priority 2008, dated 2014).
pKi: −log10 of the molar value. Counter-ions that a name gives are not always drawn.

Legend:
[1] = target: T1, human recombinant 5-HT2B receptor (Homo sapiens, UniProt P41595); test: Affinity for 5-HT2B receptor binding sites (competitive radioligand binding, [3H]mesulergine); settings: membranes of CHO with h5-HT2B, * = tested as hydrochloride salt
T1 construct: expressed in transfected cells; host or cells: CHO
Method: (§1) Stock drug solutions (10 mM) were prepared in DMSO (the final assay concentration of DMSO not exceeding 0.4%). Drug dilutions were prepared in assay buffer.
(§2) Sigmoidal inhibition curves were generated and fitted by nonlinear regression analysis (GraphPad Prism).
(§3) 2. Affinity for 5HT2 Receptor Binding Sites
(§4) Receptor binding was performed using the human recombinant 5-HT2A (GB: X57830), 5-HT2B (GB: Z36748) and 5-HT2C (GB: M81778) receptors. The affinity of the compounds for the 3 different human 5-HT2 receptor subtypes was evaluated by competitive radioligand binding assays using [^3H]ketanserin (h5-HT2A) or [^3H]mesulergine (h5-HT2B and h5-HT2C). The assays were performed on membranes prepared from NIH3T3 stably transfected with h5-HT2A or CHO stably transfected with h5-HT2B and h5-HT2C.

[2] = target: T2, human recombinant 5-HT2C receptor (Homo sapiens, UniProt P28335); test: Affinity for 5-HT2C receptor binding sites (competitive radioligand binding, [3H]mesulergine); settings: membranes of CHO with h5-HT2C, * = tested as hydrochloride salt
T2 construct: expressed in transfected cells; host or cells: CHO
T2 sequence (P28335 33-458): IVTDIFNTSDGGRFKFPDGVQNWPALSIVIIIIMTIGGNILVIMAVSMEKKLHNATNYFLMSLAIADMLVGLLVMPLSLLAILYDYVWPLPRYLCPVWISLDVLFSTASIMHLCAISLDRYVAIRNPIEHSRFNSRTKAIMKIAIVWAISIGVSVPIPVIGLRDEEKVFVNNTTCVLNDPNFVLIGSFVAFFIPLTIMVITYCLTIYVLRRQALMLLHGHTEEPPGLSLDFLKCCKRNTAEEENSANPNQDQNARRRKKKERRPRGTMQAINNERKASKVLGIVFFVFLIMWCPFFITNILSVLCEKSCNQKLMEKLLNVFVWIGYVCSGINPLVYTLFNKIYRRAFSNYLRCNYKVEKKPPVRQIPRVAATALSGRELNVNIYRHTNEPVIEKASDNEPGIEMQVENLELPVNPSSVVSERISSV
Method: as §1, §2, §3, §4

[3] = target: T3, human recombinant 5-HT2A receptor (Homo sapiens, UniProt P28223); test: Affinity for 5-HT2A receptor binding sites (competitive radioligand binding, [3H]ketanserin); settings: membranes of NIH3T3 with h5-HT2A, * = tested as hydrochloride salt
T3 construct: expressed in transfected cells; host or cells: NIH3T3
Method: as §1, §2, §3, §4

rat 5-HT7a receptor = target: T4, rat 5-HT7a receptor (Rattus norvegicus, UniProt P32305); test: Affinity for 5-HT7 receptor binding sites (competition radioligand binding, [3H]5-CT); settings: membranes of HEK-293 cells with rat 5-HT7a; 1 nM [3H]5-CT; * = tested as hydrochloride salt
T4 construct: expressed in transfected cells; host or cells: HEK-293
Method: as §1, §2
1. Affinity for 5-HT7 Receptor Binding Sites
The affinity of the compounds described in this invention for the 5-HT7 receptor binding site was evaluated by single competition radioligand binding assay. The assay was performed on membranes prepared from HEK-293 cells that had been subjected to stable transfection with the rat 5-HT7a receptor (GB: NM022938). Cells were scraped from the culture plates, suspended in Tris-HCl 50 mM pH 7.5 and collected through centrifugation (1000 rpm for 5 min). The cell pellets were homogenized (Polytron, 15 s, setting 5) in 50 mM Tris-HCl (pH 7.5), 5 mM EDTA. Following centrifugation (15,000 rpm for 25 min), membranes (135 μg protein/mL) were resuspended in the same buffer and incubated for 60 min at RT with 1 nM [^3H]5-CT in the presence of increasing concentration of test compounds. Nonspecific binding was defined in the presence of 10 μM 5-HT. Incubation was stopped by rapid filtration using the cell harvester (Packard). Radioactivity was counted in a TopCount-NXT (Packard). Experiments were conducted in triplicate.

[4] = target: T5, human recombinant 5-HT6 receptor (Homo sapiens, UniProt P50406); test: Affinity for 5-HT6 receptor binding sites (competitive radioligand binding, [3H]LSD); settings: membranes of HEK-293 with h5-HT6, * = tested as hydrochloride salt
T5 construct: expressed in transfected cells; host or cells: HEK-293
Method: as §1, §2
3. Affinity for 5-HT6 Receptor Binding Sites
Receptor binding was performed using the human recombinant 5-HT6 (GB: BC0794995) receptor. The affinity of the compounds for the human 5-HT6 receptor was evaluated by competitive radioligand binding assays using [^3H]LSD. The assays were performed on membranes prepared from HEK-293 stably transfected with h5-HT6. Non-specific binding was estimated in the presence of 1 μM clozapine.

T5 sequence (P50406 whole entry): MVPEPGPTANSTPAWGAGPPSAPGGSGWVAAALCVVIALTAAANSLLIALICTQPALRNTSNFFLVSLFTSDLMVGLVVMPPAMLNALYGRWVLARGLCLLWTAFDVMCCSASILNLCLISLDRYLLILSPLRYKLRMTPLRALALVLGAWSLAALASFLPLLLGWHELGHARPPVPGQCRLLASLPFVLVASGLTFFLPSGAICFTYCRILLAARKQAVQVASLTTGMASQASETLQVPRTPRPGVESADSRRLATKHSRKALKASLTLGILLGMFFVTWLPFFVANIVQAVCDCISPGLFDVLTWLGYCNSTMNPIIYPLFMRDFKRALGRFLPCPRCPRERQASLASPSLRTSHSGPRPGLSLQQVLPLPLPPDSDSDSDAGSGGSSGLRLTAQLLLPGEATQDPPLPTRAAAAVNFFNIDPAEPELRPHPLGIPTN
T3 sequence (P28223 whole entry): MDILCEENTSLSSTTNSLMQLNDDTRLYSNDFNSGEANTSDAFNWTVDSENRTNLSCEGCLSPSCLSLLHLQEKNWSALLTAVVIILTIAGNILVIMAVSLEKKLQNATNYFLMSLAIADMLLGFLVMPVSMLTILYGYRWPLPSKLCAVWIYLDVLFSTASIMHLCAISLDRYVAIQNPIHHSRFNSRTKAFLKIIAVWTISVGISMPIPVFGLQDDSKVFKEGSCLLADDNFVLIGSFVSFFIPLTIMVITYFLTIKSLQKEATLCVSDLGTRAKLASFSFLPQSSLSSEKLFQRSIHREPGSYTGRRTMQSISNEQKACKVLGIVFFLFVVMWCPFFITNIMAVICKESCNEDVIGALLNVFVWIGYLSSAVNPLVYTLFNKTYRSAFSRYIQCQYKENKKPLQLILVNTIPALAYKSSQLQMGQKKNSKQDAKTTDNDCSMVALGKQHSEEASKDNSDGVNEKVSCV
T1 sequence (P41595 whole entry): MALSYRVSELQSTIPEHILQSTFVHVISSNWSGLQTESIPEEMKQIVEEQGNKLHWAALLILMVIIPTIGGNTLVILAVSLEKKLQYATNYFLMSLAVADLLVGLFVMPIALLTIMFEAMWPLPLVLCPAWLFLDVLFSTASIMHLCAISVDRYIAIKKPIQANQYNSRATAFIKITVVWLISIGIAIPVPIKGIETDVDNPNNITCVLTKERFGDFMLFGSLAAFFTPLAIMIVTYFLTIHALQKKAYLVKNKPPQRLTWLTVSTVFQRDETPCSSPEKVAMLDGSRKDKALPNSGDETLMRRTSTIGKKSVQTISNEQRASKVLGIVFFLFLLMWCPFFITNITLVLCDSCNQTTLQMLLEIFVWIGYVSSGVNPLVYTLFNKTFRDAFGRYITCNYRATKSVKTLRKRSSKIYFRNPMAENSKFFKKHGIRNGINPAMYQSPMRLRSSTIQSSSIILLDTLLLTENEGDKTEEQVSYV
T4 sequence (P32305 whole entry): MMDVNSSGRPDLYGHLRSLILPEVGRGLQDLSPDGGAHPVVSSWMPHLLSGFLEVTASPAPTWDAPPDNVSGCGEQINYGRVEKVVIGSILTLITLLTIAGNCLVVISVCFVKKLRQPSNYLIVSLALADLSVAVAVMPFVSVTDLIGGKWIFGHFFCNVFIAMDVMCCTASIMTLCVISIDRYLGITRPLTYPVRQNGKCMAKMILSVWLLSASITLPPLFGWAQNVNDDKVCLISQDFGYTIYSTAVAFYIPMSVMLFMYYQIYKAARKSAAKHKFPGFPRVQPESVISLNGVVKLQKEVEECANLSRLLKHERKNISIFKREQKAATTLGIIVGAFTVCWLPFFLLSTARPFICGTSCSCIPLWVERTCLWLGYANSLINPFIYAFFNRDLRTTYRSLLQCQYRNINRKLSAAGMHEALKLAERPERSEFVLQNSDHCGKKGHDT

| pKi [1] | pKi [2] | pKi [3] | pKi (rat 5-HT7a receptor) | pKi [4] | SMILES |
| --- | --- | --- | --- | --- | --- |
| 8.70 | 7.82 | 7.35 |  | 7.51 | Cc1ccc(-c2nc(N3[C@H](C)CCC[C@@H]3C)nc3c2CCNCC3)cc1F [Example 85, 2-[(2R,6S)-2,6-dimethyl-1-piperidinyl]-4-(3-fluoro-4-methylphenyl)-6,7,8,9-tetrahydro-5H-pyrimido[4,5-d]azepine] |
| 8.15 | 7.59 | 7.41 |  | 7.74 | Cc1ccc(-c2nc(N3[C@H](C)CCC[C@@H]3C)nc3c2CCNCC3)cc1Cl [Example 79, 4-(3-chloro-4-methylphenyl)-2-[(2R,6S)-2,6-dimethyl-1-piperidinyl]-6,7,8,9-tetrahydro-5H-pyrimido[4,5-d]azepine] |
| 8.10 | 7.34 | 7.21 |  | 7.33 | COc1ccc(-c2nc(N3CCCC3C)nc3c2CCNCC3)cc1Cl (centres unmarked) [Example 66, 4-(3-chloro-4-methoxyphenyl)-6,7,8,9-tetrahydro-2-(2-methyl-1-pyrrolidinyl)-5H-pyrimido[4,5-d]azepine] |
| 7.46 | 7.16 | 7.00 |  | 7.89 | C[C@H]1COCCN1c1nc2c(c(-c3ccc(Cl)cc3)n1)CCNCC2 [Example 96, 4-(4-chlorophenyl)-6,7,8,9-tetrahydro-2-[(3S)-3-methyl-4-morpholinyl]-5H-pyrimido[4,5-d]azepine] |
| 8.52 | 9.00 | 8.40 |  | 7.34 | Clc1ccc(-c2nc(N3CCCCC3)nc3c2CCNCC3)cc1 [Example 74, 4-(4-chlorophenyl)-6,7,8,9-tetrahydro-2-(1-piperidinyl)-5H-pyrimido[4,5-d]azepine] |
| 8.70 | 7.92 | 7.27 |  | 7.72 | C[C@@H]1CCC[C@H](C)N1c1nc2c(c(-c3ccc(Cl)cc3)n1)CCNCC2 [Example 70, 4-(4-chlorophenyl)-2-[(2R,6S)-2,6-dimethyl-1-piperidinyl]-6,7,8,9-tetrahydro-5H-pyrimido[4,5-d]azepine] |
| 9.00 | 8.05 | 7.44 |  | 7.72 | Cc1ccc(-c2nc(N3[C@H](C)CCC[C@@H]3C)nc3c2CCNCC3)cc1 [Example 71, 2-[(2R,6S)-2,6-dimethyl-1-piperidinyl]-6,7,8,9-tetrahydro-4-(4-methylphenyl)-5H-pyrimido[4,5-d]azepine] |
| 7.82 | 7.82 | 7.60 |  | 8.10 | Cc1ccc(-c2nc(N3CCOC[C@@H]3C)nc3c2CCNCC3)cc1 [Example 94, 6,7,8,9-tetrahydro-2-[(3S)-3-methyl-4-morpholinyl]-4-(4-methylphenyl)-5H-pyrimido[4,5-d]azepine] |
|  |  |  | < 5.00 |  | COc1ccc(-c2nc(N3CCCCC3)nc3c2CNCCC3)cc1 [Example 21, 4-(4-Methoxy-phenyl)-2-piperidin-1-yl-6,7,8,9-tetrahydro-5H-1,3,6-triaza-benzocycloheptene hydrochloride] |
| 8.70 | 8.40 | 7.55 |  | 7.49 | Cc1ccc(-c2nc(N3CCCC3C)nc3c2CCNCC3)cc1 (centres unmarked) [Example 72, 6,7,8,9-tetrahydro-4-(4-methylphenyl)-2-(2-methyl-1-pyrrolidinyl)-5H-pyrimido[4,5-d]azepine] |
| 7.80 | 7.82 | 7.42 |  | 7.41 | Cc1ccc(-c2nc(N3CCC(F)CC3)nc3c2CCNCC3)cc1Cl [Example 76, 4-(3-chloro-4-methylphenyl)-2-(4-fluoro-1-piperidinyl)-6,7,8,9-tetrahydro-5H-pyrimido[4,5-d]azepine] |
|  |  |  | < 5.00 |  | CCN(CC)c1nc2c(c(-c3ccc(F)cc3)n1)CNCCC2 [Example 15, Diethyl-[4-(4-fluoro-phenyl)-6,7,8,9-tetrahydro-5H-1,3,6-triaza-benzocyclohepten-2-yl]-amine] |
| 8.22 | 8.30 | 7.72 |  | 7.54 | FC1CCN(c2nc3c(c(-c4ccc(Cl)cc4)n2)CCNCC3)CC1 [Example 68, 4-(4-chlorophenyl)-2-(4-fluoro-1-piperidinyl)-6,7,8,9-tetrahydro-5H-pyrimido[4,5-d]azepine] |
|  |  |  | < 5.00 |  | CCN(CC)c1nc2c(c(-c3ccc(C#N)cc3)n1)CNCCC2 [Example 18, 4-(2-Diethylamino-6,7,8,9-tetrahydro-5H-1,3,6-triaza-benzocyclohepten-4-yl)-benzonitrile] |

| SMILES | pKi [1] | pKi [2] | pKi [3] | pKi (rat 5-HT7a receptor) | pKi [4] |
| --- | --- | --- | --- | --- | --- |
| COc1ccc(-c2nc(N3CCCCCC3)nc3c2CCNC3)cc1 [Example 36, 2-Azepan-1-yl-4-(4-methoxy-phenyl)-5,6,7,8-tetrahydro-pyrido[3,4-d]pyrimidine] | 7.00 | 6.49 | 6.80 | 6.68 |  |
| Cc1ccc(-c2nc(N3CCCCCC3)nc3c2CCN(Cc2ccccc2)C3)cc1 [Example 33, 2-Azepan-1-yl-7-benzyl-4-p-tolyl-5,6,7,8-tetrahydro-pyrido[3,4-d]pyrimidine] | 6.10 | 5.49 | 6.27 | < 5.00 |  |
| C[C@@H]1CCC[C@H](C)N1c1nc2c(c(-c3ccc(F)c(F)c3)n1)CCNCC2 [Example 83, 4-(3,4-difluorophenyl)-2-[(2R,6S)-2,6-dimethyl-1-piperidinyl]-6,7,8,9-tetrahydro-5H-pyrimido[4,5-d]azepine] | 7.92 | 7.41 | 6.88 |  | 7.08 |
| C[C@H]1COCCN1c1nc2c(c(-c3cc4ccccc4o3)n1)CCNCC2 [Example 98, 4-(2-benzofuranyl)-6,7,8,9-tetrahydro-2-[(3S)-3-methyl-4-morpholinyl]-5H-pyrimido[4,5-d]azepine] | 7.60 | 6.85 | 7.00 |  | 7.89 |
| C[C@@H]1CCC[C@H](C)N1c1nc2c(c(-c3ccc(Cl)c(F)c3)n1)CCNCC2 [Example 84, 4-(4-chloro-3-fluorophenyl)-2-[(2R,6S)-2,6-dimethyl-1-piperidinyl]-6,7,8,9-tetrahydro-5H-pyrimido[4,5-d]azepine] | 8.70 | 7.74 | 6.89 |  | 7.28 |
| COc1ccc(-c2nc(N3CCCC3C)nc3c2CCNCC3)cc1 (centres unmarked) [Example 80, 6,7,8,9-tetrahydro-4-(4-methoxyphenyl)-2-(2-methyl-1-pyrrolidinyl)-5H-pyrimido[4,5-d]azepine] | 8.22 | 7.38 | 6.85 |  | 7.41 |
| C[C@H]1COCCN1c1nc2c(c(-c3cnc4ccccc4c3)n1)CCNCC2 [Example 95, 6,7,8,9-tetrahydro-2-[(3S)-3-methyl-4-morpholinyl]-4-(3-quinolinyl)-5H-pyrimido[4,5-d]azepine] | 6.24 | 6.09 | 6.82 |  | 8.15 |
| C[C@@H]1COCCN1c1nc2c(c(-c3cnc4ccccc4c3)n1)CCNCC2 [Example 99, 6,7,8,9-tetrahydro-2-[(3R)-3-methyl-4-morpholinyl]-4-(3-quinolinyl)-5H-pyrimido[4,5-d]azepine] | 6.55 | 6.31 | 5.84 |  | 7.52 |
| Cc1ccc(-c2nc(N3CCOC[C@@H]3C)nc3c2CCNCC3)cc1F [Example 97, 4-(3-fluoro-4-methylphenyl)-6,7,8,9-tetrahydro-2-[(3S)-3-methyl-4-morpholinyl]-5H-pyrimido[4,5-d]azepine] | 7.41 | 7.04 | 6.40 |  | 7.64 |
